Columns and labels:
Tfeb [1] = assay: Tfeb mRNA by quantitative real-time PCR in mouse primary astrocytes; format: cell-based; conditions: serum free media, 12 hrs, single doses or combination
Protocol: Isolation of Primary Mouse Astroglia: Astroglia were isolated from mixed glial cultures as described (24, 25) according to the procedure of Giulian and Baker (26). Briefly, on day 9, the mixed glial cultures were washed three times with Dulbecco's modified Eagle's medium/F-12 and subjected to shaking at 240 rpm for 2 h at 37° C. on a rotary shaker to remove microglia. After 2 days, the shaking was repeated for 24 h for the removal of oligodendroglia and to ensure the complete removal of all nonastroglial cells. The attached cells were seeded onto new plates for further studies. Quantitative Real-Time PCR: The mRNA quantification was performed using the ABIPrism7700 sequence detection system (Applied Biosystems, Foster City, CA) using SYBR Select master mix (Applied Biosystems). The mRNA expression of the targeted genes was normalized to the level of Gapdh mRNA and data was processed by the ABI Sequence Detection System 1.6 software.

Tfeb [2] = assay: TFEB mRNA by semi-quantitative RT-PCR in mouse primary astrocytes; format: cell-based; conditions: different concentrations, 5 hr, serum-free
Protocol: Semi-Quantitative Reverse Transcriptase-Coupled Polymerase Chain Reaction (RT-PCR): Total RNA was isolated from mouse primary astrocytes and human primary astrocytes using RNA-Easy Qiagen (Valencia, CA) kit following manufactures protocol. Semi-quantitative RTPCR was carried out as described earlier (28) using oligo (dT) 12-18 as primer and moloney murine leukemia virus reverse transcriptase (MMLV-RT, Invitrogen) in a 20 μl reaction mixture. The resulting cDNA was appropriately amplified using Promega Master Mix (Madison, WI) and the following primers (Invitrogen) for murine genes: […]
Amplified products were electrophoresed on 2% agarose (Invitrogen) gels and visualized by ethidium bromide (Invitrogen) staining. Glyceraldehyde-3-phosphate dehydrogenase (Gapdh) mRNA was used as a loading control to ascertain that an equivalent amount of cDNA was synthesized from each sample.
Mouse primary astrocytes were incubated with different concentrations (see FIG. 9) of simvastatin and pravastatin (A), (B), cinnamic acid (C), and sodium phenylbutyrate and sodium benzoate (D) for 5 hr. under serum-free condition followed by monitoring the mRNA expression of TFEB by semi-quantitative RT-PCR. Sodium formate (D) was used as a negative control for sodium phenylbutyrate and sodium benzoate.

TFEB [3] = conditions: cells from patients suffering from LINCL; cited from earlier work
[4] = 500 mg SAM given together with aspirin 1300 mg; cited from earlier work
TFEB [5] = conditions: cited from earlier work

**Q.** Which “Tfeb mRNA expression (qRT-PCR)” value (Tfeb [1]) does the source give for CC1=C(/C=C/C(C)=C/C=C/C(C)=C/C(=O)O)C(C)(C)CCC1 [ATRA, all-trans retinoic acid] here?
**A.** The value was “increased expression of Tfeb”.

**Q.** With Cc1ccc(C)c(OCCCC(C)(C)C(=O)O)c1 [gemfibrozil] as the compound, how does the “Tfeb mRNA expression (qRT-PCR)” value (Tfeb [1]) read?
**A.** The value was “increased expression of Tfeb”.

**Q.** For O=C(O)C=Cc1ccccc1 [cinnamic acid], which “TFEB mRNA expression (semi-quantitative RT-PCR)” value (Tfeb [2]) is on record?
**A.** The value was “upregulation of TFEB mRNA expression”.

**Q.** For O=C([O-])c1ccccc1.[Na+] [sodium benzoate], which “TFEB mRNA expression (semi-quantitative RT-PCR)” value (Tfeb [2]) is on record?
**A.** The value was “upregulation of TFEB mRNA expression”.

**Q.** Which “TFEB-mediated clearance of proteolipid aggregates” value (TFEB [3]) does the source give for 2-hydroxypropyl-β-cyclodextrin here?
**A.** The value was “promotes TFEB-mediated clearance of proteolipid aggregates”.

**Q.** With C[S+](CC[C@H](N)C(=O)[O-])C[C@H]1O[C@@H](n2cnc3c(N)ncnc32)[C@H](O)[C@@H]1O (stereo partly shown) [S-adenosyl-methionine] as the compound, how does the “reduction of the amount of stomach damage” value [4] read?
**A.** Its value is 90%.

**Q.** For O=c1c(-c2ccc(O)cc2)coc2cc(O)cc(O)c12 [Genistein, 5,7-dihydroxy-3-(4-hydroxyphenyl)-4H-1-benzopyran-4-one], which “TFEB levels and activity, lysosomal biogenesis” value (TFEB [5]) is on record?
**A.** Its value is “induction of TFEB levels and activity as well as lysosomal biogenesis”.
